For 24 compounds, IC50 results are on record in patent publication US20120264735A1 (priority 2009, published 2012).

Broadly, the IC50 is the point on the concentration scale where inhibition reaches its midpoint.

For the assay, the target named is T1, c-Met kinase (recombinant c-Met) (Homo sapiens, UniProt P08581).
T1 construct: 0.27 nM recombinant c-Met
T1 sequence (P08581 25-1390): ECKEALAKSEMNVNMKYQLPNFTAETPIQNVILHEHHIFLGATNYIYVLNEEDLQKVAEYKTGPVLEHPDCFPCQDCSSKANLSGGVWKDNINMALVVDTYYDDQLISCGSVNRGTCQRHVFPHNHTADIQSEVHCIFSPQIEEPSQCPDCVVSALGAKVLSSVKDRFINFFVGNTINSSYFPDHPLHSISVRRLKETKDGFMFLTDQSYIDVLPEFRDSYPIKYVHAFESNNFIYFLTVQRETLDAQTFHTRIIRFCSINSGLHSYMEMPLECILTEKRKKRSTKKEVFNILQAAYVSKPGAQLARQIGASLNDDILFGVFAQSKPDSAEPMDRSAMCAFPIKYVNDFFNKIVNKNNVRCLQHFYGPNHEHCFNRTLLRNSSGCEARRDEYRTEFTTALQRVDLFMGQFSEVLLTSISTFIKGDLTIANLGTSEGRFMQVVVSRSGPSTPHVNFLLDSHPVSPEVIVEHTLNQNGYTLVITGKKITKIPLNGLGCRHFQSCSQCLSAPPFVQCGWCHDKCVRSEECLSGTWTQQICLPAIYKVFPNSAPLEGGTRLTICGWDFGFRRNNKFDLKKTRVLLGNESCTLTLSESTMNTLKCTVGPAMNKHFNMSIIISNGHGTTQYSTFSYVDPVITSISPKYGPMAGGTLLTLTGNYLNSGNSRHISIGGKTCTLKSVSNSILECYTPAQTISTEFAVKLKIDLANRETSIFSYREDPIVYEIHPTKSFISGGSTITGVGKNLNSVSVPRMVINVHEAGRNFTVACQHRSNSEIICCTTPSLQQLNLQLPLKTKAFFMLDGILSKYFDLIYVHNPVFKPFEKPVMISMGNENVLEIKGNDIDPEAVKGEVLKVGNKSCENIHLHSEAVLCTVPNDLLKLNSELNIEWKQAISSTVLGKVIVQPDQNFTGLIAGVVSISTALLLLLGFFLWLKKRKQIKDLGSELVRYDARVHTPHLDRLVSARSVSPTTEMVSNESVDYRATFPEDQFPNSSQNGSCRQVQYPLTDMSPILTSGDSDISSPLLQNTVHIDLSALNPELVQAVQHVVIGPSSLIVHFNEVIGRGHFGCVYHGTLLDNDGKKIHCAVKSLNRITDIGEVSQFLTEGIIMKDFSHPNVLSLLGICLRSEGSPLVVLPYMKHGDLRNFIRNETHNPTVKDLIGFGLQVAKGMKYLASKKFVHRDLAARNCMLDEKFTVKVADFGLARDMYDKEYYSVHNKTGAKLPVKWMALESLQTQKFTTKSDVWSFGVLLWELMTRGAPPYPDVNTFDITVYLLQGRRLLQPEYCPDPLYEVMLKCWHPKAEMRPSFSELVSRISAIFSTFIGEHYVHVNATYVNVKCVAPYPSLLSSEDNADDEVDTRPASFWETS
Nature of the assay: In vitro kinase assay I (homogeneous time-resolved fluorescence tyrosine kinase assay). In kind it is biochemical. An outline of the steps:
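Biotinylated peptide (0.5 μM) phosphorylated by 0.2 nM recombinant c-Met with 50 μM MgATP, 60 min at room temperature, pH 7.4, 5% DMSO. EDTA stop; HTRF read with Eu-anti-phosphotyrosine antibody and streptavidin-APC. IC50 from 4-parameter logistic fit.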
For `CC(C)COC(=O)Nc1cccc(Cc2nn(-c3cnn(CCC(=O)NC4COC4)c3)ccc2=O)c1` [Example 704, 2-methylpropyl {3-[(1-{1-[3-(oxetan-3-ylamino)-3-oxopropyl]-1H-pyrazol-4-yl}-4-oxo-1,4-dihydropyridazin-3-yl)methyl]phenyl} carbamate], the IC50 was below 100 nM.
Turning to `CC(C)COC(=O)Nc1cccc(Cc2nn(-c3cnn(CCCC(=O)NCC(C)(C)O)c3)ccc2=O)c1` [Example 705, 2-methylpropyl (3-{[1-(1-{4-[(2-hydroxy-2-methylpropyl)amino]-4-oxobutyl}-1H-pyrazol-4-yl)-4-oxo-1,4-dihydropyridazin-3-yl]methyl}phenyl) carbamate], the concentration for half-maximal inhibition (IC50) is below 100 nM.
Under `Cn1cc(-n2ccc(=O)c(Cc3cccc(-c4ncn(C5COC5)n4)c3)n2)cn1` [Example 707, 1-(1-Methyl-1H-pyrazol-4-yl)-3-{3-[1-(oxetan-3-yl)-1H-1,2,4-triazol-3-yl]benzyl}pyridazin-4(1H)-one] stands 100 to 1000 nM.
Under `CCn1cnc(-c2cccc(Cc3nn(-c4cnn(C)c4)ccc3=O)c2)n1` [Example 708, 3-[3-(1-ethyl-1H-1,2,4-triazol-3-yl)benzyl]-1-(1-methyl-1H-pyrazol-4-yl)pyridazin-4(1H)-one] stands below 100 nM; under `Cn1cc(-n2ccc(=O)c(Cc3cccc(-c4ncn(CCC#N)n4)c3)n2)cn1` [Example 709, 3-[3-(3-{[1-(1-methyl-1H-pyrazol-4-yl)-4-oxo-1,4-dihydropyridazin-3-yl]methyl}phenyl)-1H-1,2,4-triazol-1-yl]propanenitrile], 100 to 1000 nM; under `CN(C)C(=O)CCn1cnc(-c2cccc(Cc3nn(-c4cnn(C)c4)ccc3=O)c2)n1` [Example 710, N,N-dimethyl-3-[3-(3-{[1-(1-methyl-1H-pyrazol-4-yl)-4-oxo-1,4-dihydropyridazin-3-yl]methyl}phenyl)-1H-1,2,4-triazol-1-yl]propanamide], 100 to 1000 nM.
Consider `Cn1cc(-n2ccc(=O)c(Cc3cccc(-c4ncn(CC(F)(F)CN5CCOCC5)n4)c3)n2)cn1` [Example 712, 3-{3-[1-(2,2-difluoro-3-morpholin-4-ylpropyl)-1H-1,2,4-triazol-3-yl]benzyl}-1-(1-methyl-1H-pyrazol-4-yl)pyridazin-4(1H)-one], for which the IC50 is below 100 nM.
In the case of `Cn1cc(-n2ccc(=O)c(Cc3cccc(-c4ncn(CC5(C)COC5)n4)c3)n2)cn1` [Example 713, 3-(3-{1-[(3-methyloxetan-3-yl)methyl]-1H-1,2,4-triazol-3-yl}benzyl)-1-(1-methyl-1H-pyrazol-4-yl)pyridazin 4(1H)-one] it was 100 to 1000 nM; in that of `Cn1cc(-n2ccc(=O)c(Cc3cccc(-c4ncn(CCS(C)(=O)=O)n4)c3)n2)cn1` [Example 714, 1-(1-methyl-1H-pyrazol-4-yl)-3-(3-{1-[2-(methylsulfonyl)ethyl]-1H-1,2,4-triazol-3-yl}benzyl)pyridazin-4(1H)-one], 100 to 1000 nM.
Under `Cn1cc(-n2ccc(=O)c(Cc3cccc(-c4ncn(CCc5ccccc5)n4)c3)n2)cn1` [Example 715, 1-(1-methyl-1H-pyrazol-4-yl)-3-{3-[1-(2-phenylethyl)-1H-1,2,4-triazol-3-yl]benzyl}pyridazin-4(1H)-one] stands 100 to 1000 nM.
Under `CCOCCn1cnc(-c2cccc(Cc3nn(-c4cnn(C)c4)ccc3=O)c2)n1` [Example 716, 3-{3-[1-(2-ethoxyethyl)-1H-1,2,4-triazol-3-yl]benzyl}-1-(1-methyl-1H-pyrazol-4-yl)pyridazin 4(1H)-one] stands 100 to 1000 nM.
For `Cn1cc(-n2ccc(=O)c(Cc3cccc(-c4ncn(CCN5CCCC5=O)n4)c3)n2)cn1` [Example 718], the IC50 lay in the range of 100 to 1000 nM.
Turning to `COC(C)(C)Cn1cnc(-c2cccc(Cc3nn(-c4cnn(C)c4)ccc3=O)c2)n1` [Example 719, 3-{3-[1-(2-methoxy-2-methylpropyl)-1H-1,2,4-triazol-3-yl]benzyl}-1-(1-methyl-1H-pyrazol-4-yl)pyridazin-4(1H)-one], the half-inhibitory concentration (IC50) is below 100 nM.
Under `Cn1cc(-n2ccc(=O)c(Cc3cccc(-c4ncn(CCCC5OCC(C)(C)CO5)n4)c3)n2)cn1` [Example 720, 3-(3-{1-[3-(5,5-dimethyl-1,3-dioxan-2-yl)propyl]-1H-1,2,4-triazol-3-yl}benzyl)-1-(1-methyl-1H-pyrazol-4-yl)pyridazin-4(1H)-one] stands below 100 nM; under `CCOc1cnc(-c2cccc(Cc3nn(-c4ccc(C(=O)NCCO)c(F)c4)ccc3=O)c2)nc1` [Example 722, 4-{3-[3-(5-Ethoxypyrimidin-2-yl)benzyl]-4-oxopyridazin-1(4H)-yl}-2-fluoro-N-(2-hydroxyethyl)benzamide], below 100 nM; under `CCOc1cnc(-c2cccc(Cc3nn(-c4ccc(C(=O)NC)c(F)c4)ccc3=O)c2)nc1` [Example 723], below 100 nM.
With `CCOc1cnc(-c2cccc(Cc3nn(-c4ccc(C(=O)NCC(C)(C)O)c(F)c4)ccc3=O)c2)nc1` [Example 724, 4-{3-[3-(5-ethoxypyrimidin-2-yl)benzyl]-4-oxopyridazin-fluoro-N-(2-1(4H)-yl}-2-hydroxy-2-methylpropyl) benzamide], the IC50 was below 100 nM.
Under `CCOc1cnc(-c2cccc(Cc3nn(-c4cccc(F)c4)ccc3=O)c2)nc1` [Example 725, 3-(3-(5-Ethoxypyrimidin-2-yl)benzyl)-1-(3-fluorophenyl)pyridazin-4(1H)-one] stands below 100 nM.
In the case of `CCOc1cnc(-c2cccc(Cc3nn(-c4cccc(C(=O)N(C)C)c4)ccc3=O)c2)nc1` [Example 726, 3-{3-[3-(5-Ethoxypyrimidin-2-yl)benzyl]-4-oxopyridazin-1(4H)-yl}-N,N-dimethylbenzamide] it was 100 to 1000 nM.
Under `CC(C)COC(=O)Nc1cccc(Cc2nn(-c3ccc(-c4cccnc4)cc3)ccc2=O)c1` [Example 727, 2-Methylpropyl[3-({4-oxo-1-[4-(pyridin-3-yl)phenyl]-1,4-dihydropyridazin-3-yl}methyl)phenyl]carbamate] stands below 100 nM.
As to `CC(C)COC(=O)Nc1cccc(Cc2nn(-c3ccc(-c4ccncc4)cc3)ccc2=O)c1` [Example 728, 2-methylpropyl (3-({4-oxo-1-(4-(pyridin-4-yl)phenyl)-1,4-dihydropyridazin-3-yl}methyl}phenyl) carbamate], the IC50 is below 100 nM.
Under `CC(C)COC(=O)Nc1cccc(Cc2nn(-c3cccc(-c4cnn(C)c4)c3)ccc2=O)c1` [Example 729, 2-methylpropyl [3-({1-[3-(1-methyl-1H-pyrazol-4-yl)phenyl]-4-oxo-1,4-dihydropyridazin-3-yl}methyl)phenyl] carbamate] stands 100 to 1000 nM; under `CC(C)COC(=O)Nc1cccc(Cc2nn(-c3cccc(-c4ccncc4)c3)ccc2=O)c1` [Example 730, 2-methylpropyl (3-{[4-oxo-1-(3-pyridin-4-ylphenyl)-1,4-dihydropyridazin-3-yl]methyl}phenyl) carbarnate], 100 to 1000 nM.
Regarding `CC(C)COC(=O)Nc1cccc(Cc2nn(-c3ccc(-c4cn[nH]c4)cc3)ccc2=O)c1` [Example 731, 2-methylpropyl [3-({4-oxo-1-[4-(1H-pyrazol-4-yl)phenyl]-1,4-dihydropyridazin-3-yl}methyl)phenyl] carbamate], the 50% inhibitory concentration (IC50) is below 100 nM.
